Laboratory results published in publication PMC10791743, “Selective CK1α degraders exert antiproliferative activity against a broad range of human cancer cell lines” (Nature Communications, 2024).
Several values for one entry are separate records, joined by “and”; a condition that tells them apart may be missing. Identical values can stand only once.

Assays:
MOLM-13 cells = experiment: Annexin-V staining for apoptosis, wild type MOLM-13; format: cell-based, human; conditions: for total apoptosis, flow cytometry: MOLM-13; for Late apoptosis, flow cytometry / Early apoptosis, flow cytometry: WT
Description: Wild type and CRBN^−/− MOLM-13 cells were grown in 12-well plates (TPP, Techno Plastic Products AG) with 500,000 cells per well in 2 ml total media volume. Cells were treated with 1 μl/ml DMSO or 1 μM compound in triplicate, and incubated for 24 or 72 h at 37 °C. To prepare samples, this buffer was used: 10 mM HEPES, 0.14 M NaCl, 2.5 mM CaCl2 pH 7.4, 2% v/v FBS in UltraPure water (Invitrogen). After incubation, samples were collected in 5-ml tubes for flow cytometry (Falcon). Single-stain controls consisted of ~150 μl of multiple samples combined. Wells were washed with 1 ml of buffer that was added to the corresponding sample tube. Cells were centrifuged at 500×g for 5 min at 4 °C to form a pellet. Supernatant was decanted and cells were washed again with 3 ml of buffer, then centrifuged. After decanting the supernatant, 3 μl of APC-conjugated anti-Annexin-V antibody (BioLegend) was added to each tube in the residual buffer left behind. Samples were mixed by vortex and incubated at room temperature in the dark for 20 min. Samples were then washed and centrifuged a final time, decanting the supernatant and blotting the tubes to remove residual buffer. 50 μl of buffer with DAPI was added to all appropriate samples and mixed, then analyzed by flow cytometry.
Supplementary Fig. 13: Gating for Annexin V flow cytometry analysis. Total cells were gated to remove cell debris, followed by single cell gating on the FSC-A/FSC-H diagonal. Within the single […]
Live cells are negative for both fluorescent markers, DAPI positive/APC negative cells are necrotic, APC positive/DAPI negative cells are still alive but in the early stages of apoptosis, and double positive cells are dead via apoptosis. Percentages of early and late apoptosis were plotted in supplementary figures 4 and 5.
(1 picture or pasted object on this page, not shown here)

CRBN−/− MOLM-13 cells = experiment: Wild type versus CRBN−/− MOLM-13 cells (viability, CRBN dependence); format: cell-based, human; parameters: key to cell viability, dose-response replicate values: % viability = 100 − % activity (RLU normalized to negative control); conditions: for cell viability, dose-response replicate values: MOLM-13 CRBN KO
Excerpt: Having identified SJ7095 as a compound with a potent antiproliferative effect in MOLM-13 cells, we next examined whether the observed effect was CRBN-dependent. […] In an orthogonal approach, we tested SJ7095 in wild-type and CRBN-knockout MOLM-13 cells in a cell viability assay (Supplementary Fig. 1b).
CRBN^−/− MOLM-13 cells were created using CRISPR-Cas9 technology. Briefly, 1 million MOLM-13 cells were transiently transfected with precomplexed ribonuclear proteins (RNPs) consisting of 400 pmol of chemically modified sgRNA (Synthego), 135pmol of SpCas9 protein (St. Jude Protein Production Core), and 500 ng of pMaxGFP (Lonza) via nucleofection (Lonza, 4D-Nucleofector™ X-unit) using solution SF and program EO100 in a 100 µl cuvette according to the manufacturer’s recommended protocol. Transfected cells (GFP+) were single-cell sorted by flow cytometry (St. Jude Flow Cytometry and Cell Sorting Shared Resource) into 96-well tissue culture-treated plates 5 days post nucleofection. Cells were clonally expanded and screened for the desired targeted modification (out-of-frame indels) via targeted deep sequencing using gene-specific primers with partial Illumina adapter overhangs as previously described. Genotyping of clones was performed using CRIS.py[59]. Knockout clones were identified as clones containing only out-of-frame indels. PowerPlex® Fusion System (Promega) was used to confirm final clone identification (Hartwell Center for Biotechnology at St. Jude). All clones tested negative for mycoplasma by the MycoAlert^TMPlus Mycoplasma Detection Kit (Lonza). CRBN knockout confirmed by immunoblot (Supplementary Material).
MOLM-13 cells were plated in Corning 8804BC white 384-well assay plates at the appropriate cell number per well and incubated overnight at 37 °C in a humidified 5 % CO2 incubator. Compounds were transferred to the assay plate from a dose-response plate using a Labcyte Echo 650 Acoustic Liquid Handler (Beckman Coulter , USA). Cytotoxicity was determined following 72 h of incubation using Promega’s CellTiter-Glo reagent according to the manufacturer’s recommendation.
Luminescence was measured on the Envision plate reader (PerkinElmer, USA). Raw luminescence relative light unit (RLU) values for each compound at each concentration were normalized to obtain % activity using the following equation (1): 100 × [(mean(negctrl) – compound)/(mean (negctrl) – mean (posctrl))]. The % activity was converted to % viability using the following equation (2):
(100 – % activity), and then pooled from replicate experiments prior to fitting. Here, negctrl and posctrl refer to the negative (DMSO) and positive controls (staurosporine) on each plate. Dose-response curves were fit to the Hill equation using the GraphPad Prism (version 10). […]

CRBN = target: T1, CRBN (Homo sapiens, UniProt Q96SW2); experiment: CRBN fluorescence polarization (FP) displacement assay; format: binding; parameters: key: % activity normalized to DMSO (0) and CC-220 (100) controls
T1 construct: 6XHis (N)
Description: The assay cocktail was prepared by combining 6XHis-CRBN-DDB1 protein (200 nM) and Cy5-O-Len probe (30 nM) in 20 mM HEPES pH 7, 150 mM NaCl, 0.005% Tween-20 assay buffer. […] Then 20 μL of the assay cocktail was dispensed to wells of the assay plate with a Multidrop Combi Reagent Dispenser (Thermo Fisher Scientific, USA). The plates were incubated in the dark for 1 h at room temperature and then read on an Envision plate reader (Perkin Elmer, USA). Raw intensity values for each compound at each concentration were normalized to obtain % activity using the following equation: 100×[(mean(negctrl)–compound)/(mean (negctrl)–mean (posctrl))], and then pooled from replicate experiments prior to fitting. Here, negctrl and posctrl refer to the negative (DMSO) and positive controls (CC-220) on each plate. Dose-response curves were fit to the Hill equation using the GraphPad Prism (version 10).

T1 sequence (Q96SW2 whole entry): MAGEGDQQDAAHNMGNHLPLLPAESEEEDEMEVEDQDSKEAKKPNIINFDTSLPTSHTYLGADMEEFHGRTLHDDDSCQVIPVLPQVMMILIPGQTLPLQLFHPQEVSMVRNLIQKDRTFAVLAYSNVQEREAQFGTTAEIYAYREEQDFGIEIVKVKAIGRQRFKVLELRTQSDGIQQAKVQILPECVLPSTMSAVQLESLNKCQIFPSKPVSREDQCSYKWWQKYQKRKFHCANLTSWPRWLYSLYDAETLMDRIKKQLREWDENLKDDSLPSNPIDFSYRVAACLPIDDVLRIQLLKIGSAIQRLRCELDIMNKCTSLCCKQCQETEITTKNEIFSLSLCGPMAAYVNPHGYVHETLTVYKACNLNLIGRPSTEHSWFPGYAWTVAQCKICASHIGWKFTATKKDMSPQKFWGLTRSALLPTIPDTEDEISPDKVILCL
T1 sequence (Q16531 whole entry partner): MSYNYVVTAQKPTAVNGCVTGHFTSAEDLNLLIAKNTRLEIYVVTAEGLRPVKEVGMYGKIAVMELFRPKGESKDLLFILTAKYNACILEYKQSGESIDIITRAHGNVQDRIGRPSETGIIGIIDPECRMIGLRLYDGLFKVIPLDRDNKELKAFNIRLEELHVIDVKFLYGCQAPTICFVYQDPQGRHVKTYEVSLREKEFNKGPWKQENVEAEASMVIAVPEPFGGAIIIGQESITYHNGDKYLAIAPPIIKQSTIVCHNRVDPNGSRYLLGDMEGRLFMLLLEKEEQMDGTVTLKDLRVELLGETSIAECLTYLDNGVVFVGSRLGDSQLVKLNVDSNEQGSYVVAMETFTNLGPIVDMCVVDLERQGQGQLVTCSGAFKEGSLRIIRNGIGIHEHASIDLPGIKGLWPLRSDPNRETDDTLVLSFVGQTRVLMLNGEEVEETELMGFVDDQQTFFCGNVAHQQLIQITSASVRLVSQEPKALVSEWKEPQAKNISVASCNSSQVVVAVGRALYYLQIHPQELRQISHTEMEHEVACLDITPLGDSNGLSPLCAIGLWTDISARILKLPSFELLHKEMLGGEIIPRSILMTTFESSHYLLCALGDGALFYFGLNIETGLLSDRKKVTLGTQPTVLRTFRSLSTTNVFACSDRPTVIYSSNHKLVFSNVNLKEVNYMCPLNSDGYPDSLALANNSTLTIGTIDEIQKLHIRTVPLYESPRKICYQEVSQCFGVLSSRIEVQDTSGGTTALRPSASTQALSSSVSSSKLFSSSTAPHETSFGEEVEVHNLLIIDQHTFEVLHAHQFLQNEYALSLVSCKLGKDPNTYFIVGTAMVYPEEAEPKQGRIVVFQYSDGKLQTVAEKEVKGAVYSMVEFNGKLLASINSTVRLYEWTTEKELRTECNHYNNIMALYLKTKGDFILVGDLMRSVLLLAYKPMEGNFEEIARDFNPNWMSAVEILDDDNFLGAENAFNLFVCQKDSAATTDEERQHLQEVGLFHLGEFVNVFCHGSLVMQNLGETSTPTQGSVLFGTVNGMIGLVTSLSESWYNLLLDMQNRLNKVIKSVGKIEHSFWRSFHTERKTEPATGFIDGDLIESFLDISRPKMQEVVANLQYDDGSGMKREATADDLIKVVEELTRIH

O=C1CCC(N2Cc3cc(Nc4noc5ccccc45)ccc3C2=O)C(=O)N1 (centres unmarked) [SJ3149]
Cells dead or dying (annexin-V) (MOLM-13 cells; 1 μM, 72 h): ~ 80%
Treatment-induced cell death (annexin-V) (MOLM-13 cells; 1 μM, 72 h, vs DMSO): increased cell death
total apoptosis, flow cytometry (MOLM-13 cells; SI_Fig 4c, DMSO 9.7, 8.6, 9.8): 30.6 and 31.3 and 31.4
total apoptosis, flow cytometry (MOLM-13 cells; SI_Fig 5c, DMSO 8, 7.6, 6.1): 81.1 and 51.1 and 84.7
Late apoptosis, flow cytometry (MOLM-13 cells; SI_Fig 4b, DMSO 3, 2.7, 3): 8.5 and 9.4 and 9.1
Early apoptosis, flow cytometry (MOLM-13 cells; SI_Fig 4b, DMSO 6.8, 5.8, 6.8): 22.2 and 21.9 and 22.3
Late apoptosis, flow cytometry (MOLM-13 cells; SI_Fig 5b, DMSO 1.5, 1.2, 1.2): 37.1 and 24.3 and 39.1
Early apoptosis, flow cytometry (MOLM-13 cells; SI_Fig 5b, DMSO 6.5, 6.4, 4.9): 44 and 26.8 and 45.7
viability at 0.000508 µM (CRBN−/− MOLM-13 cells; Homo sapiens, MOLM-13, MOLM-13 CRBN KO, Conc 0.000508 uM, read-out: cell viability, dose-response replicate values): 113%
viability at 0.00152416 µM (CRBN−/− MOLM-13 cells; Homo sapiens, MOLM-13, MOLM-13 CRBN KO, Conc 0.00152416 uM, read-out: cell viability, dose-response replicate values): 116%
viability at 0.00457247 µM (CRBN−/− MOLM-13 cells; Homo sapiens, MOLM-13, MOLM-13 CRBN KO, Conc 0.00457247 uM, read-out: cell viability, dose-response replicate values): 120%
viability at 0.0137174 µM (CRBN−/− MOLM-13 cells; Homo sapiens, MOLM-13, MOLM-13 CRBN KO, Conc 0.0137174 uM, read-out: cell viability, dose-response replicate values): 115%
viability at 0.0411523 µM (CRBN−/− MOLM-13 cells; Homo sapiens, MOLM-13, MOLM-13 CRBN KO, Conc 0.0411523 uM, read-out: cell viability, dose-response replicate values): 116%
viability at 0.123457 µM (CRBN−/− MOLM-13 cells; Homo sapiens, MOLM-13, MOLM-13 CRBN KO, Conc 0.123457 uM, read-out: cell viability, dose-response replicate values): 113%
viability at 0.37037 µM (CRBN−/− MOLM-13 cells; Homo sapiens, MOLM-13, MOLM-13 CRBN KO, Conc 0.37037 uM, read-out: cell viability, dose-response replicate values): 118%
viability at 10 µM (CRBN−/− MOLM-13 cells; Homo sapiens, MOLM-13, MOLM-13 CRBN KO, Conc 10 uM, read-out: cell viability, dose-response replicate values): 80.2%
cell viability, dose-response replicate values (CRBN−/− MOLM-13 cells; Conc 0.000508 uM): 112.4 and 118.871
cell viability, dose-response replicate values (CRBN−/− MOLM-13 cells; Conc 0.00152416 uM): 110.951 and 120.77
cell viability, dose-response replicate values (CRBN−/− MOLM-13 cells; Conc 0.00457247 uM): 113.675 and 126.396
cell viability, dose-response replicate values (CRBN−/− MOLM-13 cells; Conc 0.0137174 uM): 112.684 and 118.779
cell viability, dose-response replicate values (CRBN−/− MOLM-13 cells; Conc 0.0411523 uM): 113.146 and 122.731
cell viability, dose-response replicate values (CRBN−/− MOLM-13 cells; Conc 0.123457 uM): 114.423 and 122.764
cell viability, dose-response replicate values (CRBN−/− MOLM-13 cells; Conc 0.37037 uM): 115.466 and 130.548
cell viability, dose-response replicate values (CRBN−/− MOLM-13 cells; Conc 1.11111 uM): 110.229 and 104.531 and 126.2
cell viability, dose-response replicate values (CRBN−/− MOLM-13 cells; Conc 3.33333 uM): 104.594 and 98.0101 and 119.909
cell viability, dose-response replicate values (CRBN−/− MOLM-13 cells; Conc 10 uM): 76.5849 and 88.9707
CRBN binding FP, Activity (CRBN; SJ3149, [Compound] 0.25625 mM): 17.1311 and 16.8724 and 13.6243
CRBN binding FP, Activity (CRBN; SJ3149, [Compound] 0.76875 mM): 34.3137 and 35.3073 and 29.4577
CRBN binding FP, Activity (CRBN; SJ3149, [Compound] 2.31250 mM): 56.4886 and 56.6964 and 54.8148
CRBN binding FP, Activity (CRBN; SJ3149, [Compound] 6.93750 mM): 75.4128 and 74.3041 and 71.3624
CRBN binding FP, Activity (CRBN; SJ3149, [Compound] 20.81250 mM): 81.1017 and 84.4669 and 74.3386
CRBN binding FP, Activity (CRBN; SJ3149, [Compound] 62.50000 mM): 71.4654 and 75.3676 and 66.9577
